Source: US9556180B2, “Pyrazolo[3,4-d]pyrimidinone compounds as inhibitors of the P53/MDM2 interaction” (Novartis AG, priority 2013, dated 2017)

Assays:
Assay type in all cases: binding
[1] = target: T1, p53-MDM4 interaction (human MDM4 protein, amino acids 2-185) (Homo sapiens, UniProt O15151); test: p53-MDM4 Assay 1: TR-FRET inhibition of p53-MDM4 interaction; details: 2.5 nM MDM4-biotinylated, 10 nM Cy5-p53 peptide
T1 construct: human MDM4 protein (amino acids 2-185); made in house
T1 sequence (O15151 2-185): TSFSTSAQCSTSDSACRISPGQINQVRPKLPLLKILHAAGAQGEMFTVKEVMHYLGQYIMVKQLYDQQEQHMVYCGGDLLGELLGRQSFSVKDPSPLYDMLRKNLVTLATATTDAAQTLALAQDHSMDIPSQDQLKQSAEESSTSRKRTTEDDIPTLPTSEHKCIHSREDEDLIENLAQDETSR
Experimental: (§1) Time Resolved Fluorescence Energy Transfer (TR-FRET) Assay
(§2) The inhibition of p53-MDM2 and p53-MDM4 interactions is measured by time resolved fluorescence energy transfer (TR-FRET). Fluorescence energy transfer (or Foerster resonance energy transfer) describes an energy transfer between donor and acceptor fluorescent molecules. For this assay, human MDM2 protein (amino acids 2-188) and human MDM4 protein (amino acids 2-185), tagged with a C-terminal biotin moiety, are used in combination with a Europium labeled streptavidin (Perkin Elmer, Inc., Waltham, Mass., USA) serving as the donor fluorophore. The p53 derived, Cy5 labeled peptide Cy5-TFSDLWKLL (p53 aa18-26) is the energy acceptor. Upon excitation of the donor molecule at 340 nm, binding interaction between MDM2 or MDM4 and the p53 peptide induces energy transfer and enhanced response at the acceptor emission wavelength at 665 nm. Disruption of the formation of the p53-MDM2 or p53-MDM4 complex due to an inhibitor molecule binding to the p53 binding site of MDM2 or MDM4 results in increased donor emission at 620 nm. The ratiometric FRET assay readout is calculated from the raw data of the two distinct fluorescence signals measured in time resolved mode (fluorescence 665 nm/fluorescence 620 nm×1000).
(§3) After addition of 1.25 nM MDM2-biotinylated or 2.5 nM MDM4-biotinylated (internal preparations, both MDM2 and MDM4 are biotinylated at the C-terminal of the peptide construct), and 0.625 nM Europium labeled streptavidin (Perkin Elmer), the solution is pre-incubated for 15 minutes at room temperature, then 10 nM Cy5-p53 peptide (internal preparation, the Cy5 dye is directly bound to the N-terminal part of p53 peptide construct) is added before an incubation at room temperature for 15 minutes prior to reading the plate. For measurement of samples, a Victor II microplate reader (Perkin Elmer) is used with the following settings: Excitation 340 nm, Emission Donor 620 nm and Emission Acceptor 665 nm. IC50 values are calculated by curve fitting using XLfit. If not specified, reagents are purchased from Sigma-Aldrich Chemie GmBH, Buchs, Switzerland.
(§4) This assay was used to evaluate compounds displaying inhibition of p53-MDM2 interaction and p53-MDM4 interaction at IC50s of 0.005 to 50 μM (p53-MDM2 Assay 1 and p53-MDM4 Assay 1, respectively). For selected compounds displaying IC50s between […] on MDM2, a slightly modified assay is used with the following adaptations: 0.1 nM MDM2, 0.1 nM Europium labeled streptavidin and Tecan genios Pro is used as a microplate reader for the fluorescence measurements (p53-MDM2 Assay 2).

[2] = target: T2, p53-MDM2 interaction (human MDM2 protein, amino acids 2-188) (Homo sapiens, UniProt Q00987); test: p53-MDM2 Assay 1: TR-FRET inhibition of p53-MDM2 interaction; details: 1.25 nM MDM2-biotinylated, 10 nM Cy5-p53 peptide
T2 construct: human MDM2 protein (amino acids 2-188); made in house
T2 sequence (Q00987 2-188): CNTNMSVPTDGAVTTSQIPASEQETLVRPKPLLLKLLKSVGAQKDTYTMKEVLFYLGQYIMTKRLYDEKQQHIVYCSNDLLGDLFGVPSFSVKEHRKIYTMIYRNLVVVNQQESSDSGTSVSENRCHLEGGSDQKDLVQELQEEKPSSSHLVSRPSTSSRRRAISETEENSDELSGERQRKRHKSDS
Experimental: as §1, §2, §3, §4

[3] = target: T2, p53-MDM2 interaction (human MDM2 protein, amino acids 2-188); test: p53-MDM2 Assay 2: slightly modified TR-FRET assay; details: 0.1 nM MDM2, 0.1 nM Europium labeled streptavidin, Tecan genios Pro reader
Experimental: as §1, §2, §3, §4

Structure (SMILES): COc1ccccc1-n1nc2c(c1C(C)C)C(c1ccc(Cl)cc1C)N(c1cc(Cl)c(=O)n(C)c1)C(=O)N2 (stereo not shown) [Example 15, 5-(5-Chloro-1-methyl-6-oxo-1,6-dihydro-pyridin-3-yl)-4-(4-chloro-2-methyl-phenyl)-3-isopropyl-2-(2-methoxy-phenyl)-2,4,5,7-tetrahydro-pyrazolo[3,4-d]pyrimidin-6-one]
- IC50 [1]: 1550 nM
- IC50 [2]: 1.45 nM
- IC50 [3]: 0.18 nM

Structure (SMILES): COc1ccccc1-n1nc2c(c1C(C)C)C(c1ccc(Cl)cc1C)N(c1cc(Cl)ccc1C)C(=O)N2 (stereo not shown) [Example 10, 4-(4-Chloro-2-methyl-phenyl)-5-(5-chloro-2-methyl-phenyl)-3-isopropyl-2-(2-methoxy-phenyl)-2,4,5,7-tetrahydro-pyrazolo[3,4-d]pyrimidin-6-one]
- IC50 [1]: 4700 nM
- IC50 [2]: 1.1 nM
- IC50 [3]: 0.21 nM

Structure (SMILES): CCn1cc(N2C(=O)Nc3nn(-c4ccccc4OC)c(C(C)C)c3C2c2ccc(Cl)cc2C)cc(Cl)c1=O (stereo not shown) [Example 21, 5-(5-Chloro-1-ethyl-6-oxo-1,6-dihydropyridin-3-yl)-4-(4-chloro-2-methylphenyl)-3-isopropyl-2-(2-methoxyphenyl)-4,5-dihydro-2H -pyrazolo[3,4-d]pyrimidin-6(7H)-one]
- IC50 [1]: 1630 nM
- IC50 [2]: 1.4 nM
- IC50 [3]: 0.19 nM

Structure (SMILES): COCCn1cc(N2C(=O)Nc3nn(-c4ccccc4OC)c(C(C)C)c3C2c2ccc(Cl)cc2C)cc(Cl)c1=O (stereo not shown) [Example 19, 5-[5-Chloro-1-(2-methoxy-ethyl)-6-oxo-1,6-dihydro-pyridin-3-yl]-4-(4-chloro-2-methyl-phenyl)-3-isopropyl-2-(2-methoxy-phenyl)-2,4,5,7-tetrahydro-pyrazolo[3,4-d]pyrimidin-6-one]
- IC50 [1]: 1350 nM
- IC50 [2]: 1.3 nM
- IC50 [3]: 0.17 nM

Structure (SMILES): COc1ccccc1-n1nc2c(c1C(C)C)C(c1ccc(Cl)cc1)N(c1cc(Cl)c(=O)n(CCN(C)C)c1)C(=O)N2 (stereo not shown) [Example 22, 5-[5-Chloro-1-(2-dimethylamino-ethyl)-6-oxo-1,6-dihydro-pyridin-3-yl]-4-(4-chloro-phenyl)-3-isopropyl-2-(2-methoxy-phenyl)-2,4,5,7-tetrahydro-pyrazolo[3,4-d]pyrimidin-6-one]
- IC50 [1]: 6230 nM
- IC50 [2]: 2.7 nM
- IC50 [3]: 1.43 nM

Structure (SMILES): CCn1cc(N2C(=O)Nc3nn(-c4ccccc4OC)c(C(C)C)c3C2c2ccc(Cl)cc2)cc(Cl)c1=O (stereo not shown) [Example 14, 5-(5-Chloro-1-ethyl-6-oxo-1,6-dihydro-pyridin-3-yl)-4-(4-chloro-phenyl)-3-isopropyl-2-(2-methoxy-phenyl)-2,4,5,7-tetrahydro-pyrazolo[3,4-d]pyrimidin-6-one]
- IC50 [1]: 1480 nM
- IC50 [2]: 1.5 nM
- IC50 [3]: 0.33 nM

Structure (SMILES): COc1ccc(CN)cc1-n1nc2c(c1C(C)C)C(c1ccc(Cl)cc1C)N(c1cc(Cl)ccc1C)C(=O)N2 (stereo not shown) [Example 25, 2-(5-(Aminomethyl)-2-methoxyphenyl)-4-(4-chloro-2-methylphenyl)-5-(5-chloro-2-methylphenyl)-3-isopropyl-4,5-dihydro-2H-pyrazolo[3,4-d]pyrimidin-6(7H)-one]
- IC50 [3]: 0.12 nM

Structure (SMILES): COc1ccccc1-n1nc2c(c1C(C)C)C(c1ccc(Cl)cc1)N(c1cc(Cl)c(=O)n(C)c1)C(=O)N2 (stereo not shown) [Example 13, 5-(5-Chloro-1-methyl-6-oxo-1,6-dihydro-pyridin-3-yl)-4-(4-chloro-phenyl)-3-isopropyl-2-(2-methoxy-phenyl)-2,4,5,7-tetrahydro-pyrazolo[3,4-d]pyrimidin-6-one]
- IC50 [1]: 2180 nM
- IC50 [2]: 1.6 nM
- IC50 [3]: 0.25 nM

Structure (SMILES): COc1ccccc1-n1nc2c(c1C(C)C)C(c1ccc(Cl)cc1)N(c1cc(Cl)c(=O)n(CCO)c1)C(=O)N2 (stereo not shown) [Example 18, 5-[5-Chloro-1-(2-hydroxy-ethyl)-6-oxo-1,6-dihydro-pyridin-3-yl]-4-(4-chloro-phenyl)-3-isopropyl-2-(2-methoxy-phenyl)-2,4,5,7-tetrahydro-pyrazolo[3,4-d]pyrimidin-6-one]
- IC50 [1]: 2370 nM
- IC50 [2]: 1.6 nM
- IC50 [3]: 0.56 nM
